The record followed here is ChEMBL document CHEMBL1128822, “Synthesis and biological evaluation of 2,3-diarylthiophenes as selective Cox-2 and Cox-1 inhibitors” (Bioorg Med Chem Lett, 1995).

In experiment [1] the target is Prostaglandin G/H synthase 1 (Homo sapiens, UniProt P23219). Kind of experiment: Inhibitory activity against human COX-1 expressed in baculovirus infected Sf9 cells.
Experiment [2] has as its target T1, Prostaglandin G/H synthase 2 (Homo sapiens, UniProt P35354).
T1 sequence (P35354 whole entry): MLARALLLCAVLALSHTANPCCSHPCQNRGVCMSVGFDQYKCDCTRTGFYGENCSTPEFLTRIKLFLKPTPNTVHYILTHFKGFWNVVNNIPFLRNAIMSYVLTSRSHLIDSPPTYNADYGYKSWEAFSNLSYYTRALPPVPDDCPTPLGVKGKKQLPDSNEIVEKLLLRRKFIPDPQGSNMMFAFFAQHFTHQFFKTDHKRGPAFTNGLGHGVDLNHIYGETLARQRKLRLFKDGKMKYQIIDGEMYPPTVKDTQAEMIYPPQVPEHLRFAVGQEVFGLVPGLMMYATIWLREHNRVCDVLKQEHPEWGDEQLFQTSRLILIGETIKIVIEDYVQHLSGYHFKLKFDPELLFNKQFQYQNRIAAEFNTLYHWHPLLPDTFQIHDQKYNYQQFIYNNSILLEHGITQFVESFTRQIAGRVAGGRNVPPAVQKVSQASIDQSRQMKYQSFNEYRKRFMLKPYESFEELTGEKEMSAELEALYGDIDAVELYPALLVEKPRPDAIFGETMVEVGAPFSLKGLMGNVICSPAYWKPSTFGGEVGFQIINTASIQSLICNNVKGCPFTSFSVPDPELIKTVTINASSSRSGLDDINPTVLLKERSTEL
Kind of experiment: Inhibitory activity against human COX-2 expressed in baculovirus infected Sf9 cells. It counts as cell-based.

Chain of Prostaglandin G/H synthase 1 (P23219 whole entry): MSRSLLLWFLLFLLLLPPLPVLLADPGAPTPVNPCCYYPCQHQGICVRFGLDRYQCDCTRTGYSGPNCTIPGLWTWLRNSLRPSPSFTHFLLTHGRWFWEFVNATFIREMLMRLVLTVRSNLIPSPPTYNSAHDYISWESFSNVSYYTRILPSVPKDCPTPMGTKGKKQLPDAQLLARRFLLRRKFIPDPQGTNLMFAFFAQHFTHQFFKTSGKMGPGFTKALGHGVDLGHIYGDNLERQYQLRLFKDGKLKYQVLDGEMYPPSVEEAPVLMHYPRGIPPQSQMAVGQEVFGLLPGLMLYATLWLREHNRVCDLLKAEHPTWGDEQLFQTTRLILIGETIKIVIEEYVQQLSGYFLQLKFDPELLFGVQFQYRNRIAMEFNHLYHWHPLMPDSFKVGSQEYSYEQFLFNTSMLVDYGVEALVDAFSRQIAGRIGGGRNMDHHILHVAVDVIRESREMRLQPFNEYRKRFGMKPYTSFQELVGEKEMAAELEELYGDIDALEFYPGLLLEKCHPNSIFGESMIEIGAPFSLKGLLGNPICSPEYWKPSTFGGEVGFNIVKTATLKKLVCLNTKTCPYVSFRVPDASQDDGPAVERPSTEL

With `CNS(=O)(=O)c1ccc(-c2ccsc2-c2ccc(F)cc2)cc1`, the results for the IC50 in experiment [1] and in experiment [2] were above 50 µM and 7.2 µM, respectively.

For `OCc1ccc(-c2ccsc2-c2ccc(F)cc2)cc1`, the IC50 was 0.35 µM in experiment [1] and above 30 µM in experiment [2].

For the compound `N#Cc1ccc(-c2ccsc2-c2ccc(F)cc2)cc1`, the half-inhibitory concentration (IC50) in experiment [1] was 0.21 µM; in experiment [2], above 30 µM.

With `O=C(O)Cc1ccc(-c2ccsc2-c2ccc(F)cc2)cc1`, the IC50 in experiment [2] is above 30 µM.

For the compound `O=C(O)c1ccc(-c2ccsc2-c2ccc(F)cc2)cc1`, the IC50 in experiment [1] was above 50 µM; in experiment [2] it was above 30 µM.

Turning to `O=Cc1ccc(-c2ccsc2-c2ccc(F)cc2)cc1`, the IC50 in experiment [1] is 0.98 µM; in experiment [2], above 30 µM.

With `COC(=O)c1ccc(-c2ccsc2-c2ccc(F)cc2)cc1`, the IC50 in experiment [1] was 17 µM; in experiment [2], above 30 µM.

On to `CC(C)(O)c1cc(-c2ccc(F)cc2)c(-c2ccc(S(N)(=O)=O)cc2)s1`, for which the IC50 is above 50 µM in experiment [1] and 1.6 µM in experiment [2].

Take `NS(=O)(=O)c1ccc(-c2ccsc2-c2ccc(F)cc2)cc1`: the figures for the IC50 in experiment [1] and in experiment [2] were 1.3 µM and 0.03 µM, respectively.

In the case of `COC(=O)c1cc(-c2ccc(S(N)(=O)=O)cc2)c(-c2ccc(F)cc2)s1`, the concentration for half-maximal inhibition (IC50) was found to be 1 µM in experiment [1] and 0.07 µM in experiment [2].

As for `CS(=O)(=O)c1ccc(-c2ccsc2-c2ccc(F)cc2)cc1`, the IC50 in experiment [1] is above 100 µM; in experiment [2], 0.25 µM.

Take `COC(=O)c1cc(-c2ccc(F)cc2)c(-c2ccc(S(N)(=O)=O)cc2)s1`: the IC50 is above 50 µM in experiment [1] and above 30 µM in experiment [2].

With `CC(C)(O)c1cc(-c2ccc(S(N)(=O)=O)cc2)c(-c2ccc(F)cc2)s1`, the IC50 amounted to 5.4 µM in experiment [1] and 0.41 µM in experiment [2].

Regarding `CCS(=O)(=O)c1ccc(-c2ccsc2-c2ccc(F)cc2)cc1`, the figures for the IC50 in experiment [1] and in experiment [2] were above 50 µM and above 30 µM, respectively.

With `CC(C)c1cc(-c2ccc(S(N)(=O)=O)cc2)c(-c2ccc(F)cc2)s1`, the figures for the IC50 in experiment [1] and in experiment [2] were 0.23 µM and 0.01 µM, respectively.

Turning to `C[S+]([O-])c1ccc(-c2ccsc2-c2ccc(F)cc2)cc1` (configuration not stated), the IC50 in experiment [1] is 15 µM; in experiment [2] it was above 30 µM.

As to `CSc1ccc(-c2ccsc2-c2ccc(F)cc2)cc1`, the results for the IC50 in experiment [1] and in experiment [2] were 0.34 µM and above 30 µM, respectively.

Consider `CC(=O)NS(=O)(=O)c1ccc(-c2ccsc2-c2ccc(F)cc2)cc1`, for which the values for the IC50 in experiment [1] and in experiment [2] were above 50 µM and 5.4 µM, respectively.

Turning to `CS(=O)(=O)c1ccc(-c2sc(Br)cc2-c2ccc(F)cc2)cc1`, the figures for the IC50 in experiment [1] and in experiment [2] were 1.1 µM and 0.02 µM, respectively.

Take `CS(=O)(=O)c1ccc(-c2sccc2-c2ccc(F)cc2)cc1`: the IC50 in experiment [1] is above 50 µM; in experiment [2], 4.3 µM.

As to `NC(=O)c1ccc(-c2ccsc2-c2ccc(F)cc2)cc1`, the values for the IC50 in experiment [1] and in experiment [2] were 3.2 µM and above 30 µM, respectively.

For `CC(=O)c1ccc(-c2ccsc2-c2ccc(F)cc2)cc1`, the IC50 in experiment [1] was 0.75 µM; in experiment [2] it was above 30 µM.

Regarding `NS(=O)(=O)c1ccc(-c2sccc2-c2ccc(F)cc2)cc1`, the IC50 in experiment [1] is 2.7 µM; in experiment [2], 0.67 µM.

`C[Se](=O)(=O)c1ccc(-c2ccsc2-c2ccc(F)cc2)cc1`: the IC50 worked out at 32 µM in experiment [1] and 0.55 µM in experiment [2].
